Experimental data taken from PubChem BioAssay (NCI).
“And” between values parts separate entries of the source, which are not always exact repeats. Identical values can stand only once.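 Tested at 5 concentrations; 48 h exposure; 96-well plates; endpoints linearly interpolated, else capped at highest concentration. The concentration for 50% growth inhibition is given as GI50. TGI marks complete inhibition of growth.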

What was measured:
Test in all cases: NCI anticancer screen, dose series, 48 h
786-0 renal = test system: 786-0 renal
A498 renal = test system: A498 renal
A549 NSCLC = test system: A549 NSCLC
ACHN renal = test system: ACHN renal
CAKI-1 renal = test system: CAKI-1 renal
CCRF-CEM leukemia = test system: CCRF-CEM leukemia
COLO 205 colon = test system: COLO 205 colon
DLD-1 colon = test system: DLD-1 colon
DMS 114 small cell lung = test system: DMS 114 small cell lung
DMS 273 small cell lung = test system: DMS 273 small cell lung
HCC-2998 colon = test system: HCC-2998 colon
HCT-116 colon = test system: HCT-116 colon
HCT-15 colon = test system: HCT-15 colon
HL-60(TB) leukemia = test system: HL-60(TB) leukemia
HOP-18 NSCLC = test system: HOP-18 NSCLC
HOP-62 NSCLC = test system: HOP-62 NSCLC
HOP-92 NSCLC = test system: HOP-92 NSCLC
HT29 colon = test system: HT29 colon
IGROV1 ovarian = test system: IGROV1 ovarian
K-562 leukemia = test system: K-562 leukemia
KM12 colon = test system: KM12 colon
KM20L2 colon = test system: KM20L2 colon
LOX IMVI melanoma = test system: LOX IMVI melanoma
LXFL 529 NSCLC = test system: LXFL 529 NSCLC
M14 melanoma = test system: M14 melanoma
M19-MEL melanoma = test system: M19-MEL melanoma
MALME-3M melanoma = test system: MALME-3M melanoma
MOLT-4 leukemia = test system: MOLT-4 leukemia
NCI-H226 lung = test system: NCI-H226 lung
NCI-H460 lung = test system: NCI-H460 lung
NCI-H522 lung = test system: NCI-H522 lung
OVCAR-4 ovarian = test system: OVCAR-4 ovarian
OVCAR-5 ovarian = test system: OVCAR-5 ovarian
OVCAR-8 ovarian = test system: OVCAR-8 ovarian
RPMI-8226 leukemia = test system: RPMI-8226 leukemia
RXF 393 renal = test system: RXF 393 renal
RXF-631 renal = test system: RXF-631 renal
SF-268 CNS = test system: SF-268 CNS
SF-295 CNS = test system: SF-295 CNS
SF-539 CNS = test system: SF-539 CNS
SK-MEL-2 melanoma = test system: SK-MEL-2 melanoma
SK-MEL-5 melanoma = test system: SK-MEL-5 melanoma
SK-OV-3 ovarian = test system: SK-OV-3 ovarian
SN12C renal = test system: SN12C renal
SNB-19 CNS = test system: SNB-19 CNS
SNB-75 CNS = test system: SNB-75 CNS
SNB-78 CNS = test system: SNB-78 CNS
SR leukemia = test system: SR leukemia
SW-620 colon = test system: SW-620 colon
TK-10 renal = test system: TK-10 renal
U251 CNS = test system: U251 CNS
UACC-257 melanoma = test system: UACC-257 melanoma
UACC-62 melanoma = test system: UACC-62 melanoma
UO-31 renal = test system: UO-31 renal
BT-549 breast = test system: BT-549 breast
MDA-MB-231 breast = test system: MDA-MB-231 breast
MDA-N = test system: MDA-N
PC-3 prostate = test system: PC-3 prostate
XF 498 CNS = test system: XF 498 CNS

Which results are given for `O=C(O)/C(O)=C1/C=C(c2ccccc2)c2ccccc21`?
TGI (786-0 renal): 78 µM; TGI (A498 renal): 98.9 µM; TGI (A549 NSCLC): 71.4 µM; TGI (ACHN renal): 94.5 µM; TGI (CAKI-1 renal): 63.6 µM; TGI (CCRF-CEM leukemia): 46.6 µM; TGI (COLO 205 colon): 31.9 µM; TGI (DLD-1 colon): > 100 µM; TGI (DMS 114 small cell lung): 37.6 µM; TGI (DMS 273 small cell lung): 33.1 µM; TGI (HCC-2998 colon): 49.8 µM; TGI (HCT-116 colon): 37.6 µM; TGI (HCT-15 colon): 50.6 µM; TGI (HL-60(TB) leukemia): 45.6 µM; TGI (HOP-18 NSCLC): 47.4 µM; TGI (HOP-62 NSCLC): 55.2 µM; TGI (HOP-92 NSCLC): 34.8 µM; TGI (HT29 colon): 86.8 µM; TGI (IGROV1 ovarian): 51.8 µM; TGI (K-562 leukemia): 73.5 µM; TGI (KM12 colon): 32.4 µM; TGI (KM20L2 colon): 97.2 µM; TGI (LOX IMVI melanoma): 36.1 µM; TGI (LXFL 529 NSCLC): 91.4 µM; TGI (M14 melanoma): 45.3 µM; TGI (M19-MEL melanoma): 60.1 µM; TGI (MALME-3M melanoma): 71.3 µM; TGI (MOLT-4 leukemia): 43.8 µM; TGI (NCI-H226 lung): 59.6 µM; TGI (NCI-H460 lung): 62.7 µM; TGI (NCI-H522 lung): 30.9 µM; TGI (OVCAR-4 ovarian): 80.7 µM; TGI (OVCAR-5 ovarian): 72.2 µM; TGI (OVCAR-8 ovarian): 59.4 µM; TGI (RPMI-8226 leukemia): 56.8 µM; TGI (RXF 393 renal): 35.6 µM; TGI (RXF-631 renal): 86.3 µM; TGI (SF-268 CNS): 51.7 µM; TGI (SF-295 CNS): 32.9 µM; TGI (SF-539 CNS): 82.3 µM; TGI (SK-MEL-2 melanoma): 33.1 µM; TGI (SK-MEL-5 melanoma): 34 µM; TGI (SK-OV-3 ovarian): > 100 µM; TGI (SN12C renal): 61.9 µM; TGI (SNB-19 CNS): 83.9 µM; TGI (SNB-75 CNS): 61.7 µM; TGI (SNB-78 CNS): > 100 µM; TGI (SR leukemia): 47.1 µM; TGI (SW-620 colon): 37.7 µM; TGI (TK-10 renal): 79.8 µM; TGI (U251 CNS): 35.9 µM; TGI (UACC-257 melanoma): 48.1 µM; TGI (UACC-62 melanoma): 30 µM; TGI (UO-31 renal): 41.6 µM

How did the GI50 (786-0 renal) turn out when `CO[C@H](/C(C)=C/C=C/C(C)=C/c1coc(C)n1)[C@H](C)[C@H]1C[C@@H](O)[C@@]2(C)O[C@H]2/C=C/[C@@H](C)[C@@H]2C[C@@H](CC(=O)O2)C[C@H]2O[C@@H]2C(=O)O1` was run?
The GI50 was 0.106 pM.

And the TGI (ACHN renal)?
The TGI was > 64 µM.

What about the GI50 (BT-549 breast) of the same compound?
The GI50 was 0.0133 nM.

And the TGI (BT-549 breast)?
The TGI was 2.81 µM.

And the TGI (KM20L2 colon)?
Its TGI is 0.0005 µM.

What about the GI50 (M14 melanoma) of the same compound?
The GI50 was 0.1 pM.

And the GI50 (MDA-MB-231 breast)?
Its GI50 is 0.942 pM.

And the TGI (MDA-N)?
Its TGI is 2.15 pM.

And the TGI (OVCAR-5 ovarian)?
Its TGI is 3.99 µM and 31 µM and > 31.6 µM.

What about the TGI (PC-3 prostate) of the same compound?
Its TGI is 2.37 pM.

What about the TGI (SR leukemia) of the same compound?
Its TGI is > 100 µM.

And the GI50 (TK-10 renal)?
Its GI50 is 0.042 µM.

And the TGI (TK-10 renal)?
Its TGI is > 69.5 µM.

What about the TGI (UACC-257 melanoma) of the same compound?
Its TGI is 5 µM and 50 µM and 11.4 µM.

What about the TGI (XF 498 CNS) of the same compound?
The TGI was 2.25 µM and 0.576 µM.
